Key:
subjects = details: in vivo
Procedure: The study was a single center, single-blind study.
Once a subject had reached his/her first intolerable dose (FID-1), upward dose escalation was discontinued.
All other provisions of the protocol remained unchanged. Assessments were the same as those planned for the dose escalation day.
On each study day, subjects were followed up for up to 8 hours following drug administration for AEs, vital signs, ECGs. In addition, a laboratory panel was taken at screening and at the end of the study.

PD patients = details: 0.125 to 1.0 mg three times per day; 12 weeks; 296 PD patients; p=0.01 vs placebo; cited from earlier work
[1] = system: animal behavior simulating symptoms of depression; details: high doses of pramipexole; cited from earlier work
[2] = system: patients with a DSM-III-R diagnosis of major depression; details: pramipexole 5.0 mg group, cited from earlier work

SMILES: CCCN[C@H]1CCc2nc(N)sc2C1 [Pramipexole, (S)-6-propylamino-4,5,6,7-tetrahydro-1,3-benzothiazole-2-amine]
- dose limiting toxicity (subjects): gastro-intestinal adverse events
- BDI scores decreased by an adjusted (PD patients): 5.9 (SE 0.5)
- activity in tests of animal behavior simulating symptoms of depression [1]: active
- patients who completed the study ([2]; 8 weeks of treatment): 42.4%
- improvement at week 8 ([2]; change from baseline, no p value because of high drop-out rate): −15.00
- patients reported nausea [2]: 76%
- patients reported vomiting [2]: 39%
- patients discontinued treatment prematurely ([2]; mainly because of adverse events): 57.6%

Reference: patent US11813248B2, “NK-1 antagonist compositions and methods for use in treating depression” (priority 2017, dated 2023)
